Measurements published in PMC8344022, “Small-molecule inhibitor of AF9/ENL-DOT1L/AF4/AFF4 interactions suppresses malignant gene expression and tumor growth” (Theranostics, 2021).
Several values for one entry are separate records, joined by “and”; a condition that tells them apart may be missing. Equal values may be shown once. Blank lines part the entries; values can stand above or below the molecule they belong to. No end group written: not given here. *: point of attachment. FITC = O=C1OC2(c3ccc(O)cc3Oc3cc(O)ccc32)c2ccc(NC(=S)*)cc21; Ahx = NCCCCCC(=O)O

Columns and labels:
AF9-DOT1L interaction [1] = molecular target: T1, AF9-DOT1L interaction (Homo sapiens, UniProt P42568); test: Alpha assay, AF9 AHD-DOT1L peptide interaction; format: binding; details: for IC50: read-out: IC50, inhibition of AF9-DOT1L interaction
T1 construct: cDNA for human AF9 AHD domain (475-568) and ENL AHD domain (489-559) was synthesized; made in house; host or cells: E. coli BL21(DE3)
T1 sequence (P42568 475-568): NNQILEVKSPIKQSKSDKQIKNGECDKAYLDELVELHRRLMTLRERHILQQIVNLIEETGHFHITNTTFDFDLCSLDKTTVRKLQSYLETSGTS
Excerpt: (§1) We developed an Alpha (amplified luminescent proximity homogeneous assay) assay to determine the binding and inhibition of the PPI between maltose-binding protein (MBP)-tagged AF9 AHD and a biotin-labeled DOT1L peptide, using AlphaLisa streptavidin donor beads and anti-MBP acceptor beads. Laser excitation to the donor beads generates singlet oxygen radicals, which can travel for <200 nm in solution and cannot reach the free acceptor beads. The PPI brings the DOT1L coated donor beads and AHD coated acceptor beads together, allowing the radicals to activate the acceptor beads and produce luminescence. […] We also developed a fluorescence polarization (FP) assay. A fluorescein-labeled DOT1L peptide has a higher freedom in solution with a lower polarization value.
Alpha assays. Alpha assays were developed using Perkin-Elmer AlphaLisa anti-MBP kit, which contains streptavidin donor beads and anti-MBP acceptor beads. The assay was performed using a MBP-protein (5 nM), a biotinylated peptide (40 nM), and increasing concentrations of a compound in 25 µL buffer (PBS with 0.5 % BSA, pH 7.5) in 384-well plates according to the manufacturer's protocol and measured with a Tecan SPARK microplate reader. Data were imported into Prism (version 5.0), and IC50 values from 3 independent experiments with standard deviation were obtained by using a standard dose-response curve fitting.

AF9-DOT1L interaction [2] = molecular target: T1, AF9-DOT1L interaction; test: Fluorescence polarization (FP) inhibition assay, AF9-DOT1L; format: binding
Excerpt: as §1
Fluorescence polarization assay. It was performed in 96-well black microplates with each well containing a Fluorescein-labeled peptide (2 nM) and increasing concentration of a AF9/ENL protein in a buffer (20 mM HEPES, pH 7.5, 0.01% Triton X-100, 100 µL) for Kd determination. For IC50 determination, a Fluorescein-labeled peptide (2 nM), AF9/ENL protein (100 nM) and increasing concentration of a compound in the same buffer were placed in each well. Upon incubation of 1h, the FP value of each well was determined using a Tecan SPARK microplate reader. Data were similarly processed to obtain Kd or IC50 values.

[3] = molecular target: T2, maltose-binding protein (MBP)-tagged ENL AHD domain (489-559) (human, UniProt Q03111 489-559); test: fluorescence polarisation; direct titration: fluorescein-labeled peptide 2 nM, increasing concentration of AF9/ENL protein; 20 mM HEPES, pH 7.5, 0.01% Triton X-100; 1 h incubation; details: both partners purified
T2 construct: human ENL, AHD domain, residues 489-559; cDNA synthesized by Genscript, in pMAL c5X; No cleavage of MBP is described; source: E. coli BL21(DE3), purified (amylose resin, size exclusion)
T2 sequence (looked up): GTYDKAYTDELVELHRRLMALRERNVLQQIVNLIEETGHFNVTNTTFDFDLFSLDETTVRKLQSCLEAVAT

[4] = molecular target: T3, maltose-binding protein (MBP)-tagged AF9 AHD domain (475-568) (human, UniProt P42568 475-568); test: as above; details: both partners purified
T3 construct: human AF9, AHD domain, residues 475-568; cDNA synthesized by Genscript, in pMAL c5X; No cleavage of MBP is described; the protein is captured or detected by anti-MBP in the Alpha and pull-down assays; also called MBP-AF9 AHD; source: E. coli BL21(DE3), purified (amylose resin, size exclusion)
T3 sequence (looked up): T1 sequence (P42568 475-568)

Molecule: CC(C)(C)c1ccc(-n2cc(C(=O)Nc3ccc(Cl)c(F)c3)nc2-c2ccccc2)cc1 [Compound 9]
IC50, inhibition of AF9-DOT1L interaction (AF9-DOT1L interaction [1]): inactive | IC50 (AF9-DOT1L interaction [1]): > 50 µM

Molecule: CC(C)(C)c1ccc(-n2cc(C(=O)NCC3CCNCC3)nc2-c2ccccc2)cc1 [Compound 8]
IC50 (AF9-DOT1L interaction [1]): 29.2 µM

Molecule: CC(C)c1nc(C(=O)NC2CCNCC2)cn1-c1ccc(C(C)(C)C)cc1 [Compound 5]
IC50 (AF9-DOT1L interaction [1]): 7.8 µM

Molecule: Cc1nc(C(=O)NC2CCNCC2)cn1-c1ccc(C(C)(C)C)cc1 [Compound 6]
IC50 (AF9-DOT1L interaction [1]): > 50 µM

Molecule: CC(C)(C)c1ccc(-c2ccc(-n3cc(C(=O)NC4CCNCC4)nc3-c3ccccc3)cc2)cc1 [Compound 2]
IC50 (AF9-DOT1L interaction [2]): ~25 µM | IC50 (AF9-DOT1L interaction [1]): 26.5 µM and ~25 µM

Molecule: CC(C)(C)c1ccc(-n2cc(C(=O)Nc3ccncc3)nc2-c2ccccc2)cc1 [Compound 7]
IC50 (AF9-DOT1L interaction [1]): 22.7 µM

Molecule: CC(C)(C)c1ccc(-n2cc(C(=O)NC3CCNCC3)nc2C2CCCCC2)cc1 [Compound 4]
IC50 (AF9-DOT1L interaction [1]): 24.8 µM

The next lines start with the values.

Kd [3]: 0.0096 ± 0.0017 µM | Kd [4]: 0.018 ± 0.001 µM
B1: FITC-AHX-AF4 peptide (peptide)
peptide: {FITC-Ahx}-QSLMVKITLDLLSRIPQPPGK
notes: Used in the FP assay; source: synthetic peptide, bought: Genscript

Kd [3]: 0.031 ± 0.006 µM | Kd [4]: 0.015 ± 0.001 µM
B2: FITC-AHX-AFF4 peptide (peptide)
peptide: {FITC-Ahx}-YPLIVKIDLNLLTRIPGKPYK
notes: as for B1

Kd [3]: 0.64 ± 0.06 µM | Kd [4]: 0.087 ± 0.009 µM
B3: FITC-AHX-DOT1L peptide (peptide)
peptide: {FITC-Ahx}-NKLPVSIPLASVVLPSRAERARST
notes: Used in the FP assay; also called fluorescein-labeled DOT1L peptide; source: synthetic peptide, bought: Genscript
